BindingDB's records for doi:10.1111/cbdd.12489 (Zhejiang University, 2015)
pIC50: −log10 of the molar value.

Molecular target: RAC-alpha serine/threonine-protein kinase (Homo sapiens, UniProt P31749)
Assay: Akt1 Inhibitory Activity Assay
Settings: pH 7.5; 25 °C
Procedure: In vitro kinase assays were carried out using HTScan PKB/Akt1 Kinase Assay kit (Cell Signaling Technology). […] Then, PKB/Akt1 kinase activity was analyzed according to the manufacturer's instructions.

Chain of RAC-alpha serine/threonine-protein kinase (P31749 whole entry): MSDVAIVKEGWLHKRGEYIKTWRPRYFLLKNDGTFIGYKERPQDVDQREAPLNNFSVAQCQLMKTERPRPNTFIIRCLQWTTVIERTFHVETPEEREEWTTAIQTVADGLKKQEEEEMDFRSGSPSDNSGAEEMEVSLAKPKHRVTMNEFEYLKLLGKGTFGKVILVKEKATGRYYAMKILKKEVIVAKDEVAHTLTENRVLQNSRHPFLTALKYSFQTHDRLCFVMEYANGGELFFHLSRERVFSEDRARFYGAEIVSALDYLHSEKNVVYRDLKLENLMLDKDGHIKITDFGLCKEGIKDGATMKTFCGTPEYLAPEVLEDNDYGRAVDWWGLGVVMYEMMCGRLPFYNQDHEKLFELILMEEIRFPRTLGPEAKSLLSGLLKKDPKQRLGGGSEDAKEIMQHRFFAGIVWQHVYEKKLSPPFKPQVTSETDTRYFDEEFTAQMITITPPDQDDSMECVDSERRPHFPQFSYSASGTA

| pIC50 | SMILES |
| --- | --- |
| 5.21 | O=c1c(O)c(-c2ccc(O)c(O)c2)oc2cc(O)c(CN3CCOCC3)c(O)c12 [2-(3,4-Dihydroxyphenyl)-3,5,7-trihydroxy-6-(morpholinomethyl)-4H-chromen-4-one (3a)] |
| 5.26 | CN(Cc1ccccc1)Cc1c(O)cc2oc(-c3ccc(O)c(O)c3)c(O)c(=O)c2c1O [6-((Benzyl(methyl)amino)methyl)-2-(3,4-dihydroxyphenyl)-3,5,7-trihydroxy-4H-chromen-4-one (3c)] |
